Reference: patent publication US12370143B2, “Compound or salt thereof and lipid particles” (FUJIFILM Corporation, priority 2018, dated 2025)

How the values were obtained:
[1] = Nucleic acid encapsulation rate of nucleic acid lipid particles (FVII-siRNA); format: physicochemical
Outline: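 Total nucleic acid was measured by adding 30 μL of 3 mol/L sodium acetate and 9 μL of glycogen to 60 μL of FVII-siRNA lipid particles, then precipitating with 1.5 mL ethanol, centrifuging, air-drying, redissolving in water, and reading on a Nanodrop. Outer-phase nucleic acid came from a RiboGreen assay (ex 485 nm, em 535 nm) on samples diluted 10,000× in 1×TE. Encapsulation (%) = (total − outer)/total × 100.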

[2] = Particle size of nucleic acid lipid particles (Luc2-siRNA); format: physicochemical; conditions: compound/DSPC/cholesterol/DMG-PEG2000 50/10/38.5/1.5
Outline: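 Particle size was read by ELS-Z2 light scattering on nucleic acid lipid particles after dialysis against PBS. These were made by micromixing Luc2-siRNA (19.7 μmol/L, pH 4 acetate) with ethanolic lipids (test lipid/DSPC/cholesterol/DMG-PEG2000 50/10/38.5/1.5, 20 mmol/L) at 3:1 water:oil, siRNA/lipid 339 mol/mol.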

[3] = tested on: DMS273 cells constantly expressing Luc; test: Target reporter protein (Luc) knockdown in cell, reporter protein assay; format: cell-based; conditions: Homo sapiens, DMS-273; Luc2-siRNA lipid particles using the compound; siRNA 0.1 to 100 nmol/L; concentration at which Luc expression is knocked down to 50%; read-out: IC50
Outline: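 Nucleic acid lipid particles added at final 0.1 to 100 nmol/L to DMS273 human SCLC cells stably expressing Luc2, 24 hr exposure then 24 hr further culture after medium change. Luc quantified by Steady Glo luminescence after viable cell count; knockdown efficiency calculated and IC50 taken as concentration giving 50% Luc reduction.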

[4] = Encapsulation rate of siRNA in nucleic acid lipid particles (Luc2-siRNA); format: physicochemical; conditions: compound/DSPC/cholesterol/DMG-PEG2000 50/10/38.5/1.5
Outline: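 Encapsulation rate was calculated as (total − outer-phase siRNA)/total ×100. Total siRNA was quantified spectrophotometrically after lipid-dissolving ethanol precipitation, and unencapsulated siRNA by RiboGreen in TE (ex 485/em 535 nm). The particles were test lipid/DSPC/cholesterol/DMG-PEG2000 at 50/10/38.5/1.5, formed by microfluidic mixing with Luc2-siRNA at pH 4 and dialyzed against PBS.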

[5] = Particle size of nucleic acid lipid particles (FVII-siRNA); format: physicochemical
Outline: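 Lipid particles formed by micromixing ethanolic ionizable lipid/DSPC/cholesterol/DMG-PEG2000 (50/10/38.5/1.5 mol) with siRNA in pH 4 acetate buffer (3:1 water:oil), diluted with PBS and dialysed against PBS.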

[6] = tested on: Factor VII (FVII) protein; test: Measurement of Factor VII (FVII) protein in mouse plasma after FVII-siRNA lipid particles; format: in vivo, C57BL6/J mice; conditions: 0.1 mg/kg caudal vein, plasma 24 hours after administration, PBS group = 100%
Outline: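 C57BL6/J mice (n=3) received FVII-siRNA nucleic acid lipid particles at 0.1 mg/kg into the tail vein; controls got PBS. Each value is the percentage of the PBS-group FVII level.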

SMILES | Nucleic acid encapsulation rate [1] [%] | Particle size (nm) [2] [nm] | IC50 [3] [µM] | Nucleic acid encapsulation rate [4] [%] | Particle size (nm) [5] [nm] | Relative amount of FVII protein (%) [6] [%]
CCCCCCCCCCCCC(CCCCCCCCC(=O)OCC(CCCC)CCCCCC)OC(=O)OCCN(CC)CCN(CC)CC (stereo not drawn) [Example 50, 2-Butyloctyl 12-dodecyl-3,6-diethyl-10-oxo-9,11-dioxa-3,6-diazahenicosan-21-oate] | 84 | 65.6 | 0.013 | 79 | 65.4 | 11
CCCCCCC(=O)OCCN(CCOC(=O)OC(CCCCCC)CCCCCCCCC(=O)OCC(CCCC)CCCCCC)CCN(CC)CC (stereo not drawn) [Example 104, 2-Butyloctyl 3-ethyl-6-(2-(heptanoyloxy)ethyl)-12-hexyl-10-oxo-9,11-dioxa-3,6-diazahenicosan-21-oate] | 69 | 76.6 | 0.004 | 81 | 85.8 | 1
CCCCCCCCCCCC(=O)OCCN(CCOC(=O)OC(CCCCCC)CCCC(=O)OCC(CCCCCC)CCCCCCCC)CCN(CC)CC (stereo not drawn) [Example 109, 2-Hexyldecyl 6-(2-(dodecanoyloxy)ethyl)-3-ethyl-12-hexyl-10-oxo-9,11-dioxa-3,6-diazahexadecan-16-oate] | 86 | 65.7 | 0.026 | 91 | 62.7 | 3
CCCCC/C=C\C/C=C\CCCCCCCCC(CCCCCCCC/C=C\C/C=C\CCCCC)OC(=O)OCCN(CCC)CCN(C)C [Example 31, 2-((2-(Dimethylamino)ethyl)(propyl)amino)ethyl((6Z,9Z,28Z,31Z)-heptatriaconta-6,9,28,31-tetraen-19-yl)carbonate] | 80 | 67.9 | 0.038 | 78 | 73.5 | 14
CCCCCCCCCC(=O)OCCN(CCOC(=O)OC(CCCCCC)CCCC(=O)OCC(CCCC)CCCCCC)CCN(CC)CC (stereo not drawn) [Example 107, 2-Butyloctyl 6-(2-(decanoyloxy)ethyl)-3-ethyl-12-hexyl-10-oxo-9,11-dioxa-3,6-diazahexadecan-16-oate] | 83 | 64.8 | 0.023 | 78 | 70.6 | 1
CCCCC/C=C\C/C=C\CCCCCCCCC(CCCCCCCC/C=C\C/C=C\CCCCC)OC(=O)OCCN(CCCCC)CCN(C)C [Example 40, 2-((2-(Dimethylamino)ethyl)(pentyl)amino)ethyl((6Z,9Z,28Z,31Z)-heptatriaconta-6,9,28,31-tetraen-19-yl)carbonate] | 75 | 73.7 | 0.015 | 75 | 66.6 | 3
CCCCC/C=C\C/C=C\CCCCCCCCC(CCCCCCCC/C=C\C/C=C\CCCCC)OC(=O)OCCN(CCN(CC)CC)Cc1ccccc1 [Example 51, 2-(Benzyl(2-(diethylamino)ethyl)amino)ethyl((6Z,9Z,28Z,31Z)-heptatriaconta-6,9,28,31-tetraen-19-yl)carbonate] | 84 | 69 | 0.037 | 76 | 71 | 19
CCCCC/C=C\C/C=C\CCCCCCCCC(CCCCCCCC/C=C\C/C=C\CCCCC)OC(=O)OCCN(CCC)CCN(C)C(C)C [Example 64] | 86 | 61.5 | 0.005 | 75 | 65.7 | 10
CCCCCCCCCCC(CCCCCCCCCCC(=O)OCC(CCCC)CCCCCC)OC(=O)OCCN(CC)CCN(CC)CC (stereo not drawn) [Example 66, 2-Butyloctyl 12-decyl-3,6-diethyl-10-oxo-9,11-dioxa-3,6-diazatricosan-23-oate] | 98 | 69.8 | 0.028 | 73 | 85.4 | 17
CCCCC/C=C\C/C=C\CCCCCCCCC(CCCCCCCC/C=C\C/C=C\CCCCC)OC(=O)OCCN(CC)CCN(CC)CC [Example 30, 2-((2-(Diethylamino)ethyl)(ethyl)amino)ethyl((6Z,9Z,28Z,31Z)-heptatriaconta-6,9,28,31-tetraen-19-yl)carbonate] | 88 | 69.8 | 0.024 | 78 | 73.6 | 5
CCCCCCC(CCCC)COC(=O)CCCCCCCCC(CCCCCC)OC(=O)OCCN(CCOC(=O)CCCCC)CCN(CC)CC (stereo not drawn) [Example 105, 2-Butyloctyl 3-ethyl-6-(2-(hexanoyloxy)ethyl)-12-hexyl-10-oxo-9,11-dioxa-3,6-diazahenicosan-21-oate] | 73 | 100 | 0.028 | 81 | 102.4 | 7
CCCCCCCCCC(CCCCCCCCC(=O)OCC(CCCC)CCCCCC)OC(=O)OCCN(CC)CCN(CC)CC (stereo not drawn) [Example 75, 2-Butyloctyl 3,6-diethyl-12-nonyl-10-oxo-9,11-dioxa-3,6-diazahenicosan-21-oate] | 83 | 65.4 | 0.008 | 76 | 79.1 | 17

More lines, main results first:

Nucleic acid encapsulation rate [1] [%] | Particle size (nm) [2] [nm] | IC50 [3] [µM] | Nucleic acid encapsulation rate [4] [%] | Particle size (nm) [5] [nm] | SMILES | Relative amount of FVII protein (%) [6] [%]
70 | 63.2 | 0.039 | 91 | 65.8 | CCCCCCCCCCC(CCCCCCCC)COC(=O)CCCCCCCCC(CCCCCC)OC(=O)OCCN(CCN(CC)CC)C(C)C (stereo not drawn) [Example 121, 2-Octyldodecyl 3-ethyl-12-hexyl-6-isopropyl-10-oxo-9,11-dioxa-3,6-diazahenicosan-21-oate] | 10
66 | 66.5 | 0.027 | 90 | 68.1 | CCCCCCCC/C=C\CCCCCCCC(=O)OCCN(CCOC(=O)OC(CCCCCC)CCCC(=O)OCC(CCCCCC)CCCCCCCC)CCN(CC)CC (stereo not drawn) [Example 120, 2-Hexyldecyl 3-ethyl-12-hexyl-6-(2-(oleoyloxy)ethyl)-10-oxo-9,11-dioxa-3,6-diazahexadecan-16-oate] | 6
100 | 68.6 | 0.018 | 79 | 74.2 | CCCCCCCCCCC(CCCCCCCC)COC(=O)CCCC(CCCCCC)OC(=O)OCCN(CCN(CC)CC)C(C)C (stereo not drawn) [Example 112, 2-Octyldodecyl 3-ethyl-12-hexyl-6-isopropyl-10-oxo-9,11-dioxa-3,6-diazahexadecan-16-oate] | 3
64 | 93.6 | 0.035 | 90 | 80.5 | CCCCCCCC/C=C\CCCCCCCC(=O)OCCN(CCOC(=O)OC(CCCCCC)CCCCCCCCC(=O)OCC(CCCCCC)CCCCCCCC)CCN(CC)CC (stereo not drawn) [Example 118, 2-Hexyldecyl 3-ethyl-12-hexyl-6-(2-(oleoyloxy)ethyl)-10-oxo-9,11-dioxa-3,6-diazahenicosan-21-oate] | 9
84 | 69.5 | 0.019 | 83 | 80.7 | CCCCCCCOC(=O)CCN(CCOC(=O)OC(CCCCCC)CCCCCCCCC(=O)OCC(CCCC)CCCCCC)CCN(CC)CC (stereo not drawn) [Example 122, 2-Butyloctyl 3-ethyl-6-(3-(heptyloxy)-3-oxopropyl)-12-hexyl-10-oxo-9,11-dioxa-3,6-diazahenicosan-21-oate] | 3
